Source: US8278290B2, “Tubulin polymerisation inhibitors” (Biononics Limited, priority 2005, dated 2012)

Experiments:
MDA-MB-231 tumour = MDA-MB-231 tumour growth in mice; type: in vivo; details: 35 mg/kg/d (35 mg/kg/d for 3 days then 17.5 mg/kg/d for 3 days then none); 5 mice per group; FIG. 1
Description: The effect of 35 mg/kg/d CA4-P, compound entry 8, compound entry 9, compound entry 10 and compound entry 23 (administered at 35 mg/kg/d for 3 days then 17.5 mg/kg/d for 3 days then none) on MDA-MB-231 tumour growth is summarised in FIG. 1.
The effect of CA4-P and test compounds and saline on MDA-MB-231 tumour growth. Each group consisted of 5 mice. The data represent the mean tumour volume; bars SEM.

MCF-7, cancer cell line = test: MCF-7 growth inhibition (SRB or Sysmex cell counting); type: cell-based; details: SRB or CC assay
Tubulin = test: Inhibition of tubulin polymerisation; type: biochemical; details: tubulin concentration 10 μM; extent of assembly after 20 min incubation at 30° C.; read-out: Inhib. Tubulin polymerisation IC50
[1] = system: Human umbilical vein endothelial cells; test: Proliferation Assay - activated endothelium (MTT); type: cell-based; details: HUVEC, range within which the IC50 value falls, 48 hrs culture, read-out: Inhib activated HUVECs IC50
Description: Proliferation Assay—activated endothelium: Human umbilical vein endothelial cells (CC-2519, Clonetics) were plated at 2500 cells/well in EGM2 (CC-3162, Clonetics) in a 96 well plate in triplicate. Cells were cultured overnight at 37° C. 5% CO2. Medium was subsequently replaced with fresh medium including the compound or negative control. Cells were cultured for a period of 48 hrs. An MTT assay was performed to measure changes in cell numbers. Briefly, 20 μl of MTT reagent was added to cells containing 100 μl of EGM2 and incubated at 37° C. for 2 hours. Absorbance was measured at 492 nm.

MDA-MB-231 = MDA-MB-231 growth inhibition (footnote b); type: cell-based; details: Homo sapiens; entries 59-60: cell line MDA-MB-231; range within which the IC50 value falls; read-out: cancer cell line IC50 (MDA-MB-231)
[2] = Homo sapiens, MCF7, concentration required to inhibit net cell growth by 50%
[3] = concentration required to inhibit net cell growth by 50%

SMILES | effect on MDA-MB-231 tumour growth (MDA-MB-231 tumour) | IC50 (MCF-7, cancer cell line; [2]) [µM] | IC50 (Tubulin) [µM] | IC50 (MCF-7, cancer cell line; [3]) [µM] | IC50 [1] [µM] | IC50 (MDA-MB-231) [µM]
COc1ccc(/C=C\c2cc(OC)c(OC)c(OC)c2)cc1OP(=O)([O-])[O-].[Na+].[Na+] [CA4-P, combretastatin A4 disodium phosphate, reference compound] | effectively inhibited | – | – | – | – | –
COc1ccc(-c2oc3c(O)c(OC)ccc3c2C(=O)c2cc(OC)c(OC)c(OC)c2)cc1 [Entry 4, reference compound] | – | 0.001 to 0.002 | 1.5 ± 0.4 | – | – | –
COc1ccc(-c2oc3c(O)c(OC)ccc3c2C(=O)c2cc(OC)c(OC)c(OC)c2)cc1O [Entry 5, reference compound] | – | 0.0039 | < 4 | 0.0041 | – | –
COc1ccc2c(C(=O)c3cc(OC)c(OC)c(OC)c3)coc2c1 [Entry 6, reference compound] | – | 0.06 | 1.6 ± 0.2 | 0.05 | – | –
COc1ccc2c(C(=O)c3cc(OC)c(OC)c(OC)c3)c(-c3ccc(OC)nc3)oc2c1 [Entry 11, 2-(6-Methoxy-pyridin-3-yl)-3-(3,4,5-trimethoxybenzoyl)-6-methoxy-benzofuran] | – | 0.07 | < 4 | 0.072 | 0.01 to 0.1 | –
COc1ccc2c(C(=O)c3cc(OC)c(OC)c(OC)c3)c(-c3cnn(C)c3)oc2c1 [Entry 12, 6-Methoxy-2-(1-methyl-1H-pyrazol-4-yl)-3-(3,4,5-trimethoxybenzoyl)benzo[b]furan] | – | 0.0039 | 1.2 ± 0.04 | 0.004 | 0.001 to 0.01 | –
COc1cc(C(=O)c2c(-c3cnn(C)c3)oc3c(O)c(OC)ccc23)cc(OC)c1OC [Entry 14, 2-(4-N-Methylpyrazolyl)-3-(3,4,5-trimethoxybenzoyl)-6-methoxy-7-hydroxy-benzofuran] | – | – | 1.3 ± 0.07 | – | 0.0001 to 0.001 | –
COc1cc(C(=O)c2c(-c3cnn(C)c3)oc3c(N)c(OC)ccc23)cc(OC)c1OC [Entry 21, 7-Amino-6-methoxy-2-(1-methyl-1H-pyrazol-4-yl)-3-(3,4,5-trimethoxybenzoyl)benzo[b]furan] | – | < 0.001 | 1.5 ± 0.1 | 0.0012 | 0.001 to 0.01 | –
COc1cc(C(=O)c2c(-c3cnn(C)c3)oc3c(OP(=O)([O-])[O-])c(OC)ccc23)cc(OC)c1OC.[Na+].[Na+] [Entry 23, 2-(4-N-methylpyrazolyl)-3-(3,4,5-trimethoxybenzoyl)-6-methoxy-7-O-disodiumphosphate-benzofuran] | effectively inhibited | – | – | – | – | –
COc1cc(C(=O)c2c(-c3ccco3)oc3c(O)c(OC)ccc23)cc(OC)c1OC [Entry 36, 2-(2-furanyl)-7-hydroxy-6-methoxy-3-(3,4,5-trimethoxybenzoyl)benzo[b]furan] | – | – | 8.7 ± 0.8 | – | 0.001 to 0.01 | –
COc1cc(C(=O)c2c(-c3ccc(C=O)s3)oc3c(O)c(OC)ccc23)cc(OC)c1OC [Entry 37, 2-(2-thiophene-5-carbaldehyde)-7-hydroxy-3-(3,4,5-trimethoxybenzoyl)-6-methoxy-benzo[b]furan] | – | 0.0018 | – | 0.0023 | 0.001 to 0.01 | –
COc1cc(C(=O)c2c(-n3cccc3)oc3c(O)c(OC)ccc23)cc(OC)c1OC [Entry 38, 2-(1-pyrolyl)-7-hydroxy-3-(3,4,5-trimethoxybenzoyl)-6-methoxy-benzo[b]furan] | – | 0.0014 | – | 0.0021 | 0.001 to 0.01 | –
COc1ccc2c(C(=O)c3cc(OC)c(OC)c(OC)c3)c(-c3cn(C)cn3)oc2c1 [Entry 39, [2-(1-methyl-1H-Imidazol-4-yl)-6-methoxy-benzofuran-3-yl]-(3,4,5-trimethoxyphenyl)-methanone] | – | 0.04 | – | 0.035 | 0.01 to 0.1 | –
COc1ccc(-n2cc(-c3oc4cc(OC)ccc4c3C(=O)c3cc(OC)c(OC)c(OC)c3)cn2)cc1 [Entry 40, {6-Methoxy-2-[1-(4-methoxy-phenyl)-1H-pyrazol-4-yl]-benzofuran-3-yl}-(3,4,5-trimethoxyphenyl)-methanone] | – | 0.36 | – | 0.35 | 0.1 to 1 | –
COc1cc(C(=O)c2c(-c3cnn(C)c3)oc3c(F)c(OC)ccc23)cc(OC)c1OC [Entry 41] | – | 0.0042 | – | 0.0036 | 0.001 to 0.01 | –
COc1ccc2c(C(=O)c3cc(OC)c(OC)c(OC)c3)c(-c3cnn(CCN(C)C)c3)oc2c1 [Entry 42, {2-[1-(2-Dimethylamino-ethyl)-1H-pyrazol-4-yl]-6-methoxy-benzofuran-3-yl}-(3,4,5-trimethoxyphenyl)-methanone] | – | 0.3 | – | 0.31 | 0.1 to 1 | –
COc1cc(C(=O)c2c(-n3cncn3)oc3c(O)c(OC)ccc23)cc(OC)c1OC [Entry 43, 2-(1,2,4-triazol-1-yl)-7-hydroxy-3-(3,4,5-trimethoxybenzoyl)-6-methoxy-benzo[b]furan] | – | 0.00037 | – | 0.00032 | 0.0001 to 0.001 | –
COc1cc(C(=O)c2c(-c3nccs3)oc3c(O)c(OC)ccc23)cc(OC)c1OC [Entry 44, 7-Hydroxy-2-(2-thiazolyl)-3-(3,4,5-trimethoxybenzoyl)-6-methoxy-benzo[b]furan] | – | 0.00037 | 2.2 ± 0.4 | 0.00032 | 0.0001 to 0.001 | –
COc1ccc2c(C(=O)c3cc(OC)c(OC)c(OC)c3)c(-c3c[nH]cn3)oc2c1 [Entry 45, [2-(1H-Imidazol-4-yl)-6-methoxy-benzofuran-3-yl]-(3,4,5-trimethoxyphenyl)-methanone] | – | 0.0045 | – | 0.0057 | 0.001 to 0.01 | –
COc1ccc2c(C(=O)c3cc(OC)c(OC)c(OC)c3)c(N3CCN(C)CC3)oc2c1 [Entry 46, 2-(4-N-Methylpiperazino)-3-(3,4,5-trimethoxybenzoyl)-6-methoxy-benzo[b]furan] | – | 0.2 | – | 0.23 | 0.1 to 1 | –
COc1ccc2c(C(=O)c3cc(OC)c(OC)c(OC)c3)c(-c3ccco3)oc2c1 [Entry 52, 2-(2-Furyl)-6-methoxy-3-(3,4,5-trimethoxybenzoyl)benzo[b]furan] | – | 0.0069 | – | 0.0079 | 0.001 to 0.01 | –
COc1cc(C(=O)c2c(-c3cnn(CC(N)=O)c3)oc3c(F)c(OC)ccc23)cc(OC)c1OC [Entry 53, 2-{4-[7-Fluoro-6-methoxy-3-(3,4,5-trimethoxybenzoyl)benzofuran-2-yl]-1H-pyrazol-1-yl}acetamide] | – | 0.0078 | – | 0.0081 | 0.0001 to 0.001 | –
COc1cc(Sc2c(-c3cnn(C)c3)oc3c(N)c(OC)ccc23)cc(OC)c1OC [Entry 54, 7-Amino-6-methoxy-2-(1-methyl-1H-pyrazol-4-yl)-3-(3,4,5-trimethoxyphenylthio)benzo[b]furan] | – | 0.0001 to 0.001 | – | – | 0.001 to 0.01 | –
COc1ccc2c(/C(=N/O)c3cc(OC)c(OC)c(OC)c3)c(-c3cnn(C)c3)oc2c1 [Entry 55, (E/Z)-6-methoxy-2-(1-methyl-1H-pyrazol-4-yl)-3-(3,4,5-trimethoxybenzoyl)benzo[b]furan oxime] | – | 0.1 to 1 | – | – | 0.1 to 1 | –
COc1ccc2c(/C(=N/Nc3ccc([N+](=O)[O-])cc3[N+](=O)[O-])c3cc(OC)c(OC)c(OC)c3)c(-c3cnn(C)c3)oc2c1 [Entry 56, (E/Z)-6-Methoxy-2-(1-methyl-1H-pyrazol-4-yl)-3-(3,4,5-trimethoxybenzoyl)benzo[b]furan 2,4-dinitrophenylhydrazone] | – | > 1 | – | – | 0.1 to 1 | –
COc1cc(C(=O)c2c(-c3nn[nH]n3)oc3c(O)c(OC)ccc23)cc(OC)c1OC [Entry 57, 7-Hydoxy-6-methoxy-2-(2H-tetrazol-5-yl)-3-(3,4,5-trimethoxybenzoyl)-benzo[b]furan] | – | 0.01 to 0.1 | – | – | 0.01 to 0.1 | –
COc1cc(C(=O)c2c(-c3c[nH]nn3)oc3c(O)c(OC)ccc23)cc(OC)c1OC [Entry 58, 17-Hydroxy-6-methoxy-2-(2H-[1,2,3]triazol-4-yl)-3-(3,4,5-trimethoxybenzoyl)benzo[b]furan] | – | 0.001 to 0.01 | – | – | 0.001 to 0.01 | –
COc1cc(C(=O)c2c(-c3cncn3C)oc3c(O)c(OC)ccc23)cc(OC)c1OC [Entry 59, 7-Hydroxy-6-methoxy-2-(3-methyl-3H-imidazol-4-yl)-3-(3,4,5-trimethoxybenzoyl)-benzo[b]furan] | – | – | – | – | 0.001 to 0.01 | 0.001 to 0.01
